# Laboratory results taken from patent publication US20240409585A1, “MACROCYCLIC IMMUNOMODULATORS” (priority 2021, published 2024).
# Numbered stars: 1 amine (or outer) side, 2 acyl side, 3 side chain; on linkers, the order of the positions; unused ones are H or OH. Bridge positions count the residues as written; N and C are the ends. Square brackets hold non-standard residues; d marks the D form. Peptide text beside a SMILES is read from it. * marks the point of attachment. ξ: configuration not given here. Bip(4'-COOH) = N[C@@H](Cc1ccc(-c2ccc(C(=O)O)cc2)cc1)C(=O)O; Bip(4'-NHAc) = CC(=O)Nc1ccc(-c2ccc(C[C@H](N)C(=O)O)cc2)cc1; Phe(3-CF3) = N[C@@H](Cc1cccc(C(F)(F)F)c1)C(=O)O; Ala(morpholin-4-yl) = N[C@@H](CN1CCOCC1)C(=O)O; Phe(4-CONH2) = NC(=O)c1ccc(C[C@H](N)C(=O)O)cc1; Phe(4-COOH) = N[C@@H](Cc1ccc(C(=O)O)cc1)C(=O)O; Bip = N[C@@H](Cc1ccc(-c2ccccc2)cc1)C(=O)O; Phe(3-F) = N[C@@H](Cc1cccc(F)c1)C(=O)O; Phe(3-Me) = Cc1cccc(C[C@H](N)C(=O)O)c1; Val(3-OH) = CC(C)(O)[C@H](N)C(=O)O; X11 = CC(N)[C@H](N[*:1])C(=O)[*:2]; Cha = N[C@@H](CC1CCCCC1)C(=O)O; Thr(3ξ) = CC(O)[C@H](N)C(=O)O; Carboxymethyl = O=C(O)C*; NMeA = CN[C@@H](C)C(=O)O; Nle = CCCC[C@H](N)C(=O)O; Orn = NCCC[C@H](N)C(=O)O; Dab = NCC[C@H](N)C(=O)O
# Assays:
# [1] = biological target: T1, PE-labeled human PD-L1-Ig binding to Jurkat cell line over-expressing human PD-1 (Jurkat-PD-1) (Homo sapiens, UniProt Q15116); test: Jurkat-PD-1 Cell Binding High-Content Screening Assay (CBA): Method 2 (presence and absence of tween-20); conditions: Jurkat-PD-1 cells, PE-labeled PD-L1-Ig 20 nM; presence or absence of tween-20 not given; head μM; read-out: CBA Method 2 μM
# T1 construct: expressed in transfected cells; host or cells: Jurkat
# T1 sequence (Q15116 25-288): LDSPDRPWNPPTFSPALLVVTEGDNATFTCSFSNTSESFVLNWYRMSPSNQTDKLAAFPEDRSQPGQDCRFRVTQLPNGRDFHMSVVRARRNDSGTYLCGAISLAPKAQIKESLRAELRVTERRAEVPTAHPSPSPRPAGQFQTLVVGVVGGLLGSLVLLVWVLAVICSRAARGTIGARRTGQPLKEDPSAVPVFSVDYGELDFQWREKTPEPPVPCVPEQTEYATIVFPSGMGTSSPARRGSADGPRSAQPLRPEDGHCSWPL
# How it was run: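 Compounds incubated with Jurkat cells overexpressing human PD-1 for 2 h at 37° C, tested with and without tween-20 to flag aggregation. PE-labeled human PD-L1-Ig (20 nM final) added in DMEM/10% FCS; binding read by high-content imaging.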
# [2] = biological target: T1, PE-labeled human PD-L1-Ig binding to Jurkat cell line over-expressing human PD-1 (Jurkat-PD-1); test: Jurkat-PD-1 Cell Binding High-Content Screening Assay (CBA): Method 1; conditions: Jurkat-PD-1 cells, PE-labeled PD-L1-Ig; μM; read-out: CBA Method 1 μM
SMILES,IC50 [1] [µM],IC50 [2] [µM]
COC[C@@H]1NC(=O)CSC[C@@H](C(=O)N[C@@H](CCN)C(N)=O)NC(=O)[C@H](CCCN)NC(=O)[C@H](C(C)C)NC(=O)[C@H](CC2CCCCC2)NC(=O)[C@H](CCN)NC(=O)[C@@H](CC(C)C)NC(=O)[C@H](C)N(C)C(=O)[C@H](CCC(N)=O)NC(=O)[C@H](Cc2ccc(-c3ccccc3)cc2)NC(=O)[C@H](Cc2ccc(-c3ccc(C(=O)O)cc3)cc2)NC(=O)[C@H](Cc2cccc(C)c2)NC(=O)[C@H](CC(=O)O)NC(=O)[C@H](Cc2ccc(OCC(=O)O)cc2)NC1=O [Example 5057] ({CH2CO}-S(Me)Y(Carboxymethyl)D[Phe(3-Me)][Bip(4'-COOH)][Bip]Q[NMeA][dL][Dab][Cha]V[Orn]C[Dab]-NH2; thioether N-14),0.0106,0.0089
Cc1cccc(C[C@@H]2NC(=O)[C@H](CC(=O)O)NC(=O)[C@H](Cc3ccc(C(=O)O)cc3)NC(=O)[C@H](CC(C)C)NC(=O)CSC[C@@H](C(=O)N[C@@H](CCN)C(N)=O)NC(=O)[C@H](CCCN)NC(=O)[C@H](C(C)C)NC(=O)[C@H](Cc3cccc(F)c3)NC(=O)[C@H](CCN)NC(=O)[C@@H](CC(C)C)NC(=O)[C@H](C)N(C)C(=O)[C@H](CCC(N)=O)NC(=O)[C@H](Cc3ccc(-c4ccccc4)cc3)NC(=O)[C@H](Cc3ccc(-c4ccc(C(=O)O)cc4)cc3)NC2=O)c1 [Example 5064] ({CH2CO}-L[Phe(4-COOH)]D[Phe(3-Me)][Bip(4'-COOH)][Bip]Q[NMeA][dL][Dab][Phe(3-F)]V[Orn]C[Dab]-NH2; thioether N-14),0.0348,0.0544
Cc1cccc(C[C@@H]2NC(=O)[C@H](CC(=O)O)NC(=O)[C@H](Cc3ccc(OCC(=O)O)cc3)NC(=O)[C@H](CCN)NC(=O)CSC[C@@H](C(=O)N[C@@H](CCN)C(N)=O)NC(=O)[C@H](CCC(N)=O)NC(=O)[C@H](C(C)C)NC(=O)[C@H](CC3CCCCC3)NC(=O)[C@H](CCN)NC(=O)[C@@H](CC(C)C)NC(=O)[C@H](C)N(C)C(=O)[C@H](Cc3ccc(C(N)=O)cc3)NC(=O)[C@H](Cc3ccc(-c4ccccc4)cc3)NC(=O)[C@H](Cc3ccc(OCC(=O)O)cc3)NC2=O)c1 [Example 5068] ({CH2CO}-[Dab]Y(Carboxymethyl)D[Phe(3-Me)]Y(Carboxymethyl)[Bip][Phe(4-CONH2)][NMeA][dL][Dab][Cha]VQC[Dab]-NH2; thioether N-14),0.0106,0.0172
CCCC[C@@H]1NC(=O)CSC[C@@H](C(=O)N[C@@H](CCN)C(N)=O)NC(=O)[C@H](CO)NC(=O)[C@H](C(C)(C)O)NC(=O)[C@H](CC2CCCCC2)NC(=O)[C@H](CCN)NC(=O)[C@@H](CC(C)C)NC(=O)[C@H](C)N(C)C(=O)[C@H](Cc2ccc(C(N)=O)cc2)NC(=O)[C@H](Cc2ccc(-c3ccccc3)cc2)NC(=O)[C@H](Cc2ccc(-c3ccc(NC(C)=O)cc3)cc2)NC(=O)[C@H](Cc2cccc(C)c2)NC(=O)[C@H](CC(=O)O)NC(=O)[C@H](Cc2ccc(OCC(=O)O)cc2)NC1=O [Example 5069] ({CH2CO}-[Nle]Y(Carboxymethyl)D[Phe(3-Me)][Bip(4'-NHAc)][Bip][Phe(4-CONH2)][NMeA][dL][Dab][Cha][Val(3-OH)]SC[Dab]-NH2; thioether N-14),0.0131,0.0136
CC(=O)Nc1ccc(-c2ccc(C[C@@H]3NC(=O)[C@H](Cc4cccc(C)c4)NC(=O)[C@H](CC(=O)O)NC(=O)[C@H](Cc4ccc(OCC(=O)O)cc4)NC(=O)[C@H](C(C)O)NC(=O)CSC[C@@H](C(=O)N[C@@H](CCN)C(N)=O)NC(=O)[C@H](CO)NC(=O)[C@H](C(C)(C)O)NC(=O)[C@H](CC4CCCCC4)NC(=O)[C@H](CCN)NC(=O)[C@@H](CC(C)C)NC(=O)[C@H](C)N(C)C(=O)[C@H](Cc4ccc(C(N)=O)cc4)NC(=O)[C@H](Cc4ccc(-c5ccccc5)cc4)NC3=O)cc2)cc1 (stereo partly drawn) [Example 5071] ({CH2CO}-[Thr(3ξ)]Y(Carboxymethyl)D[Phe(3-Me)][Bip(4'-NHAc)][Bip][Phe(4-CONH2)][NMeA][dL][Dab][Cha][Val(3-OH)]SC[Dab]-NH2; thioether N-14),0.0261,0.0322

# Molecules with a lower IC50 [1], results first:
IC50 [1] [µM],IC50 [2] [µM],SMILES
0.0024,0.0032,CC(C)C[C@H]1NC(=O)[C@H](C)N(C)C(=O)[C@H](CCC(N)=O)NC(=O)[C@H](Cc2ccc(-c3ccccc3)cc2)NC(=O)[C@H](Cc2ccc(-c3ccc(C(=O)O)cc3)cc2)NC(=O)[C@H](Cc2cccc(C(F)(F)F)c2)NC(=O)[C@H](CC(=O)O)NC(=O)[C@H](Cc2ccc(C(=O)O)cc2)NC(=O)[C@H](CN2CCOCC2)NC(=O)CSC[C@@H](C(=O)N[C@@H](CCN)C(N)=O)NC(=O)[C@H](CCCN)NC(=O)[C@H](C(C)C)NC(=O)[C@H](CC2CCCCC2)NC(=O)[C@H](CCN)NC1=O [Example 5058] ({CH2CO}-[Ala(morpholin-4-yl)][Phe(4-COOH)]D[Phe(3-CF3)][Bip(4'-COOH)][Bip]Q[NMeA][dL][Dab][Cha]V[Orn]C[Dab]-NH2; thioether N-14)
0.0033,0.0029,Cc1cccc(C[C@@H]2NC(=O)[C@H](CC(=O)O)NC(=O)[C@H](Cc3ccc(C(=O)O)cc3)NC(=O)[C@H](CN3CCOCC3)NC(=O)CSC[C@@H](C(=O)N[C@@H](CCN)C(N)=O)NC(=O)[C@H](CCCN)NC(=O)[C@H](C(C)C)NC(=O)[C@H](CC3CCCCC3)NC(=O)[C@H](CCN)NC(=O)[C@@H](CC(C)C)NC(=O)[C@H](C)N(C)C(=O)[C@H](CCC(N)=O)NC(=O)[C@H](Cc3ccc(-c4ccccc4)cc3)NC(=O)[C@H](Cc3ccc(-c4ccc(C(=O)O)cc4)cc3)NC2=O)c1 [Example 5059] ({CH2CO}-[Ala(morpholin-4-yl)][Phe(4-COOH)]D[Phe(3-Me)][Bip(4'-COOH)][Bip]Q[NMeA][dL][Dab][Cha]V[Orn]C[Dab]-NH2; thioether N-14)
0.0093,0.0068,Cc1cccc(C[C@@H]2NC(=O)[C@H](CC(=O)O)NC(=O)[C@H](Cc3ccc(C(=O)O)cc3)NC(=O)[C@H](CN3CCOCC3)NC(=O)CSC[C@@H](C(=O)N[C@@H](CCN)C(N)=O)NC(=O)[C@H](CCCN)NC(=O)[C@H](C(C)C)NC(=O)[C@H](Cc3cccc(F)c3)NC(=O)[C@H](CCN)NC(=O)[C@@H](CC(C)C)NC(=O)[C@H](C)N(C)C(=O)[C@H](CCC(N)=O)NC(=O)[C@H](Cc3ccc(-c4ccccc4)cc3)NC(=O)[C@H](Cc3ccc(-c4ccc(C(=O)O)cc4)cc3)NC2=O)c1 [Example 5060] ({CH2CO}-[Ala(morpholin-4-yl)][Phe(4-COOH)]D[Phe(3-Me)][Bip(4'-COOH)][Bip]Q[NMeA][dL][Dab][Phe(3-F)]V[Orn]C[Dab]-NH2; thioether N-14)
0.0052,0.0054,Cc1cccc(C[C@@H]2NC(=O)[C@H](CC(=O)O)NC(=O)[C@H](Cc3ccc(C(=O)O)cc3)NC(=O)[C@H](CC(C)C)NC(=O)CSC[C@@H](C(=O)N[C@@H](CCN)C(N)=O)NC(=O)[C@H](CCCN)NC(=O)[C@H](C(C)C)NC(=O)[C@H](CC3CCCCC3)NC(=O)[C@H](CCN)NC(=O)[C@@H](CC(C)C)NC(=O)[C@H](C)N(C)C(=O)[C@H](CCC(N)=O)NC(=O)[C@H](Cc3ccc(-c4ccccc4)cc3)NC(=O)[C@H](Cc3ccc(-c4ccc(C(=O)O)cc4)cc3)NC2=O)c1 [Example 5063] ({CH2CO}-L[Phe(4-COOH)]D[Phe(3-Me)][Bip(4'-COOH)][Bip]Q[NMeA][dL][Dab][Cha]V[Orn]C[Dab]-NH2; thioether N-14)
0.006,0.0077,CCCC[C@@H]1NC(=O)CSC[C@@H](C(=O)N[C@@H](CCN)C(N)=O)NC(=O)[C@H](CO)NC(=O)[C@H](C(C)(C)O)NC(=O)[C@H](CC2CCCCC2)NC(=O)[C@H](CCN)NC(=O)[C@@H](CC(C)C)NC(=O)[C@H](C)N(C)C(=O)[C@H](Cc2ccc(C(N)=O)cc2)NC(=O)[C@H](Cc2ccc(-c3ccccc3)cc2)NC(=O)[C@H](Cc2ccc(OCC(=O)O)cc2)NC(=O)[C@H](Cc2cccc(C)c2)NC(=O)[C@H](CC(=O)O)NC(=O)[C@H](Cc2ccc(OCC(=O)O)cc2)NC1=O [Example 5065] ({CH2CO}-[Nle]Y(Carboxymethyl)D[Phe(3-Me)]Y(Carboxymethyl)[Bip][Phe(4-CONH2)][NMeA][dL][Dab][Cha][Val(3-OH)]SC[Dab]-NH2; thioether N-14)
0.0028,0.0304,Cc1cccc(C[C@@H]2NC(=O)[C@H](CC(=O)O)NC(=O)[C@H](Cc3ccc(OCC(=O)O)cc3)NC(=O)[C@H](C(C)N)NC(=O)CSC[C@@H](C(=O)N[C@@H](CCN)C(N)=O)NC(=O)[C@H](CO)NC(=O)[C@H](C(C)(C)O)NC(=O)[C@H](CC3CCCCC3)NC(=O)[C@H](CCN)NC(=O)[C@@H](CC(C)C)NC(=O)[C@H](C)N(C)C(=O)[C@H](Cc3ccc(C(N)=O)cc3)NC(=O)[C@H](Cc3ccc(-c4ccccc4)cc3)NC(=O)[C@H](Cc3ccc(OCC(=O)O)cc3)NC2=O)c1 (stereo partly drawn) [Example 5066] ({CH2CO}-[X11]Y(Carboxymethyl)D[Phe(3-Me)]Y(Carboxymethyl)[Bip][Phe(4-CONH2)][NMeA][dL][Dab][Cha][Val(3-OH)]SC[Dab]-NH2; thioether N-14)
0.0069,0.0072,Cc1cccc(C[C@@H]2NC(=O)[C@H](CC(=O)O)NC(=O)[C@H](Cc3ccc(OCC(=O)O)cc3)NC(=O)[C@H](C(C)O)NC(=O)CSC[C@@H](C(=O)N[C@@H](CCN)C(N)=O)NC(=O)[C@H](CO)NC(=O)[C@H](C(C)(C)O)NC(=O)[C@H](CC3CCCCC3)NC(=O)[C@H](CCN)NC(=O)[C@@H](CC(C)C)NC(=O)[C@H](C)N(C)C(=O)[C@H](Cc3ccc(C(N)=O)cc3)NC(=O)[C@H](Cc3ccc(-c4ccccc4)cc3)NC(=O)[C@H](Cc3ccc(OCC(=O)O)cc3)NC2=O)c1 (stereo partly drawn) [Example 5067] ({CH2CO}-[Thr(3ξ)]Y(Carboxymethyl)D[Phe(3-Me)]Y(Carboxymethyl)[Bip][Phe(4-CONH2)][NMeA][dL][Dab][Cha][Val(3-OH)]SC[Dab]-NH2; thioether N-14)
